Results reported in patent US20220331416A1, “COMBINED EXPRESSION OF A CHIMERIC CD3 FUSION PROTEIN AND AN ANTI-CD3-BASED BISPECIFIC T CELL ACTIVATING ELEMENT” (BIOTHEUS (SUZHOU) CO., LTD., priority 2019, published 2022).

Columns and labels:
[1] = tested on: HER2 CAB-T co-cultured with SKBR3; experiment: Dasatinib inhibition of killing activity of HER2 CAB-T (LDH); conditions: E:T 5:1, over 12 hours
[2] = tested on: HER2 CAB-T co-cultured with SKBR3; experiment: Dasatinib inhibition of cytokine release of HER2 CAB-T; assay type: cell-based; conditions: activated HER2 CAB-T, co-cultured overnight
[3] = tested on: CAIX CAB-T co-cultured with CALX+MDA-MB231; conditions: E:T 5:1, over 12 hours
Experimental: Briefly, 5×10^4 effector cells (CAIX CAB-T or HER2 CAB-T) and 1×10^4 target cells (CALX+MDA-MB231 or SKBR3) were co-cultured with a gradient concentration of dasatinib (100 nM, 50 nM, 25 nM, 12.5 nM, 6.25 nM, 0 nM), Cytotoxicity of CAB-T to its target cells were determined in 2-hour intervals over a period of 12 hours [effector-to-target cell (E:T) ratio, 5:1].

[4] = tested on: CAIX CAB-T co-cultured with CAIX+MDA-MB231; experiment: Dasatinib inhibition of cytokine release of CAIX CAB-T; assay type: cell-based; conditions: activated CAIX CAB-T, co-cultured overnight

Cc1nc(Nc2ncc(C(=O)Nc3c(C)cccc3Cl)s2)cc(N2CCN(CCO)CC2)n1 [dasatinib]
around 50 nM: dose at which cytotoxicity to target cells is inhibited effectively [1] | dose at which cytotoxicity to target cells is inhibited effectively [3]
around 25 nM: dose at which IFNγ secretion is inhibited effectively [2] | dose at which IL-2 secretion is inhibited effectively [2] | dose at which IFNγ secretion is inhibited effectively [4] | dose at which IL-2 secretion is inhibited effectively [4]
